In data set [1] the test system is guinea pig platelets (TXA2/prostaglandin H2 receptor). As to the kind of experiment: Test on anti-platelet activity (TXA2 antagonizing test): inhibition of U-46619-induced platelet aggregation. It is filed as cell-based. The following applies: Cavia porcellus, 0.05 h; minimum concentration inhibiting U-46619 (0.5-1 μM)-induced platelet aggregation by 30% or more; guinea pig PRP; read-out: TXA2 Antagonizing Activity (MEC), minimum effective concentration. The protocol: Using guinea pig platelets influence of the compounds in accordance with the present invention on platelet aggregation induced by U-46619 (9,11-dideoxy-9α,11a-methanoepoxyprostaglandin F2 α; manufactured by Cayman Chemica Co., Ltd.) which is a TXA2 /prostaglandin H2 receptor stimulant was examined.
Male guinea pig (Hartley strain; body weight, 300 to 600 g) was anesthesized by intraperitoneal administration of sodium pentobarbital (30 mg/kg) and blood was collected from the descending aorta of the abdomen with a 1/10 volume of sodium citrate. By centrifugation (KC-70: manufactured by Kubota Co., Ltd.) at 800 rpm for 10 minutes, platelet rich plasma (PRP) was collected. Platelet aggregation induced by U-46619 (0.5-1 μM) was determined by photometry [Born, G.V.R. et al., Nature (London), 194, 927-929 (1962)]. A test compound was pretreated 3 minutes prior to aggregation induction and ability of inhibiting aggregation was measured. The minimum concentration for inhibiting platelet aggregation by 30% or more was defined as the minimum effective concentration (MEC) of the test compound.

For the next data set, the system named is mice. Description: Acute toxicity test. Format: in vivo. The following applies: mortality observed for seven days. The protocol: Using three dd strain male mice weighing 20±1 g, a test compound was orally (po; 300 mg/kg) or intraperitoneally (ip; 100 mg/kg) administered. MLD (the minimum lethal dose) was determined by observing the mortality for seven days after administration.

Data set [2] relates to homologous passive cutaneous anaphylaxis (PCA). As to the kind of experiment: Antiallergic activity test: homologous passive cutaneous anaphylaxis (PCA) test for 48 hours using rats. The note with it: Rattus norvegicus, po, minimum dose with at least one of 3 rats showing PCA inhibition rate 50% or more, read-out: Antiallergic Activity (MED), minimum effective dose. Format: in vivo, rat (Wistar strain, male). The protocol: Antiallergic activity was examined in accordance with the passive cutaneous anaphylaxis (PCA) test using rats. As test animals, Wistar strain male rats weighing 180 to 220 g were used to collect antiserum and for the PCA test, Wistar strain male rats weighing 120 to 140 g were used.
Anti-EWA rat serum was prepared according to the method of Stotland and Share [Can. J. Physiol. Pharmacol., 52, 1114 (1974)]. That is, 1 mg of EWA was mixed with 20 mg of aluminum hydroxide gel and 0.5 ml of pertussis-diphtberia-tetanus mixed vaccine. The mixture was subcutaneously administered to the rat paw in 4 portions. Fourteen days after, blood was collected from the carotid artery and the serum was isolated and stored in a state frozen at -80° C. Titer of this antiserum to homologous PCA for 48 hours was 1:32.
Three rats were used per group. After the hair at the back was cut, 0.05 ml each of anti-EWA rat serum diluted to 8-fold with physiological saline was intracutaneously injected to each rat at the back in 2 places to passively sensitize the rat. A test compound or its solution (physiological saline solution or CMC solution) was orally administered 47 hours after and 0.5 ml/100 g of 1% Evans Blue physiological saline containing 2 mg of antigen EWA was then intravenously administered to the tail vein an hour after the administration. Thirty minutes later, the animal was bled to death. The skin was peeled off and a leaked dye amount at the blue dyed portion was measured according to the method of Katayama et al. [Microbiol. Immunol., 22, 89 (1978)]. That is, the blue dyed portion was cut off with scissors, put into a test tube charged with 1 ml of 1 N potassium hydroxide and incubated at 37° C. for 24 hours. After 9 ml of a mixture of 0.6 N phosphate:acetone (5:13) was added to the system, the mixture was shaken followed by centrifugation at 2500 rpm for 10 minutes. The absorbancy of the supernatant at 620 nm was measured and the leaked dye amount was quantitatively determined by comparison with a calibration curve previously prepared. A value of one rat was obtained from a mean value of the two portions and an inhibition rate-of each rat was calculated according to the following equation. [formula]
The case showing that the inhibition rate is 50% or more is judged to be positive in the PCA inhibition activity and the minimum dose in which at least one out of 3 rats was recognized to be positive was defined as the minimum effective dose (MED) of the test compound.

The next data set addresses T1, histamine H1 receptor (Cavia porcellus, UniProt P31389).
T1 construct: from tissue; host or cells: guinea pig cerebellum membranes
As to the kind of experiment: Binding study using 3H-pyrilamine (histamine H1 receptor binding). Details: species or system guinea pig. The following applies: read-out: (%) Inhibition (3H-pyrilamine binding). How it is done: Receptor binding was determined by the method of chang et al. [J. Neurochem., 32, 1953 (1979)].
The cerebellum of guinea pig was suspended in a 40-fold amount (V/W) of chilled 50 mM phosphate buffer (pH 7.5) with Polytron Homogenizer (Kinematica Co., Ltd.). The suspension was centrifuged (35,500×g, 10 minutes). The resulting precipitates were resuspended in an equal amount of fresh buffer followed by centrifugation. A 100-fold amount (V/W) of chilled buffer was added to the final precipitates.
To 1 ml of the membrane suspension adjusted as described above were added 50 μl of tritium-labeled pyrilamine (^3 H-pyrilamine; NEN Co., Ltd.) and 50 μl of a test compound. The mixture was allowed to stand at 25° C. for 30 minutes, 4 ml of chilled buffer was added thereto. The mixture was rapidly filtered through a glass fiber filter (GF/C; Whatman). The filter paper was further washed three times with 5 ml of buffer. Hereafter procedures were performed in a manner similar to the TXA2 receptor binding test to determine radioactivity.
An inhibitory activity of the test compound against H1 receptor was calculated by the following equation. [formula]
Amount of the total binding is an amount of ^3 H-pyrilamine-bound radioactivity in the absence of a test compound.
The amount of non-specific binding is an amount of ^3 H-pyrilamine-bound radioactivity in the presence of 3 μM Astemizole (manufactured by Janesen Pharmaceutics).
The amount bound in the presence of a test compound is an amount of ^3 H-pyrilamine-bound radioactivity in the presence of a test compound in various concentrations.

A further data set has as its target T2, TXA2 receptor (Cavia porcellus, UniProt A0A286Y4I8).
T2 construct: To a washed platelet suspension (1×10^8 platelets) of guinea pig; endogenous in cells; host or cells: washed guinea pig platelets
T2 sequence (A0A286Y4I8 1-347): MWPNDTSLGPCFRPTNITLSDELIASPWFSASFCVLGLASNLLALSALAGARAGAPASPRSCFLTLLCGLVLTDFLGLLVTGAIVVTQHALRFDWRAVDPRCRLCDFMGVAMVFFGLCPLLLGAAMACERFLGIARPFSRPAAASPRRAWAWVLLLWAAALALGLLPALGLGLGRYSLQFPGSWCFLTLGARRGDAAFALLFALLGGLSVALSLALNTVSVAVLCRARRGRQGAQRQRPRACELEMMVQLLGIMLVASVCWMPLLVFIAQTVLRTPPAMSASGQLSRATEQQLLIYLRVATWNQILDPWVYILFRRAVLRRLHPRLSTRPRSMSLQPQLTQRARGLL
As to the kind of experiment: Binding study using 3H-U46619 (TXA2 receptor binding activities test). Details: species or system guinea pig. The following applies: for inhibition at 1 µM: 20 min, read-out: % Inhibition (3H-U46619 binding); for inhibitory activity (TXA2 receptor binding), in words: statement in words on Table 4. How it is done: Receptor binding was determined by a modified method of Kattelman et al. (Thrombosis Research, 41, 471 (1986)].
To a washed platelet suspension (1×10^8 platelets) of guinea pig were added 12 nM of tritium-labeled U46619 (^3 H-U46619; NEN Co., Ltd.) and a test compound (final concentration: 1 μM) solution. After keeping at 37° C. for 20 minutes, the mixture was rapidly filtered through a glass fiber filter paper (GF/C; Whatman). Immediately, the filter paper was washed 5 times with 3 ml of ice-cold 50 mM Tris-hydroxymethylaminomethane buffer (containing 100 mM sodium chloride). The glass fiber filter was transferred to a vial and a scintillator (Ex-H; manufactured by Wako Pure Chemical Industries Co., Ltd.) was added thereto. The radioactivity was determined with a liquid scintillation counter.
It is already known that ^3 H-U46619 is capable of binding with TXA2 receptor (see the publication supra). An inhibitory activity of the test compound against this binding means an ability of binding with the TXA2 receptor. It is also known that a good relationship exists between this binding activity and the anti-platelet activity (TXA2 antagonizing test).
An inhibitory activity (binding activity) of the test compound was calculated by the following equation. [formula]
Amount of the total binding is an amount of ^3 H-U46619-bound radioactivity in the absence of a test compound.
The amount of non-specific binding is used to mean an amount of ^3 H-U46619-bound radioactivity in the presence of 10 μM U-46619.
The amount bound in the presence of a test compound is an amount of ^3 H-U46619-bound radioactivity in the presence of a test compound in various concentrations.

The mark [3] stands for this setting: test compound 1 μM, 12 nM 3H-U46619, washed guinea pig platelets, 37° C., 20 minutes.

Like-named read-outs stand apart in the source and are kept apart here.

For orientation: inhibition means the relative decrease from the control value, in per cent.

T1 sequence (P31389 whole entry): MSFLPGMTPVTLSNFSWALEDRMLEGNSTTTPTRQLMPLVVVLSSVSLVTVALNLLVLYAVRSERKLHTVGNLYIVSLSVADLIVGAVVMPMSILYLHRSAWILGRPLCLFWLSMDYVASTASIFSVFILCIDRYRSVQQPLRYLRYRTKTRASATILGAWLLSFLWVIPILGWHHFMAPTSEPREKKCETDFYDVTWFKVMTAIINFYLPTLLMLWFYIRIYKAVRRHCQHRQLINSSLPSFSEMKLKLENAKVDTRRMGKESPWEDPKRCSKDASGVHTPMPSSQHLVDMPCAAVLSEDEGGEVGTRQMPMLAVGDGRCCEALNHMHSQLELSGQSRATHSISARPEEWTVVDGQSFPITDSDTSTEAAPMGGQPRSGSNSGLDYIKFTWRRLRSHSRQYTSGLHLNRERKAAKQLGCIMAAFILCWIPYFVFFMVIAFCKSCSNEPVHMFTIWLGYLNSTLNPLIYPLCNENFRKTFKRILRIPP

Take `O=C(O)c1ccc2c(c1)C(SCCN1CCN(c3ccc(F)cc3)CC1)c1ccccc1CO2` (stereo not drawn) [Compound 8b]: the minimal effective concentration in data set [1] is 1 µg/mL. In addition, the results for the “Acute Toxicity (MLD), minimum lethal dose” value (“Acute Toxicity (MLD)” below) with mice (ip) and in the data set with mice (po) were over 100 mg/kg and over 300 mg/kg, respectively. In addition, in data set [2], the minimal effective dose was determined as 10 mg/kg.
Taken in the same sequence, the figures for `COc1ccccc1N1CCN(CCSC2c3ccccc3COc3ccc(C(=O)O)cc32)CC1` (stereo not drawn) [Compound 9b] were 1 µg/mL, over 100 mg/kg, over 300 mg/kg and 10 mg/kg.
In the same order, the values of `O=C(O)c1ccc2c(c1)C(SCCN1CCC(c3ccccc3)CC1)c1ccccc1CO2` (stereo not drawn) [Compound 37b, 11-[2-(4-Phenyl-1-piperidinyl)ethyl]thio-6,11-dihydrodibenz[b,e]oxepin-2-carboxylic acid] are 10 µg/mL, over 100 mg/kg, over 300 mg/kg and 1 mg/kg.
On to `CN(C)CCSC1c2ccccc2COc2ccc(C(=O)O)cc21` (stereo not drawn) [Compound (A), reference compound], for which the results for the inhibition at 1 µM on histamine H1 receptor and on TXA2 receptor (setting [3]) were 88% and -4%, respectively. The “inhibitory activity (TXA2 receptor binding), in words” value (from here on “inhibitory activity”) on TXA2 receptor is “not observed”.
`CN(C)CCC=C1c2ccccc2COc2ccc(CC(=O)O)cc21` [Compound (B), reference compound]: the inhibition at 1 µM on TXA2 receptor (setting [3]) came out at 1%. In addition, the “inhibitory activity” value at TXA2 receptor is “not observed”.
As to `O=C(O)c1ccc2c(c1)/C(=C/CN1CCN(c3ccc(F)cc3)CC1)c1ccccc1CO2` [Compound E-73b, (E)-11-[2-[4-(4-Fluorophenyl)-1-piperazinyl]ethylidene]-6,11-dihydrodibenz[b,e]oxepin-2-carboxylic acid.isopropanol. monohydrate], the minimal effective concentration in data set [1] amounted to 10 µg/mL. Besides, the “Acute Toxicity (MLD)” value in the data set on mice (ip) is listed as over 100 mg/kg; in the data set on mice (po), over 300 mg/kg. Moreover, in data set [2], the minimal effective dose is over 100 mg/kg. Further, the inhibition at 1 µM on TXA2 receptor (setting [3]) came to 85%.
`O=C(O)c1ccc2c(c1)/C(=C/CN1CCN(S(=O)(=O)C=Cc3ccccc3)CC1)c1ccccc1CO2` [Compound E-78b, (E)-11-[2-[4-(Styrylsulfonyl)-1-piperazinyl]ethylidene]-6,11-dihydrodibenz[b,e]oxepin-2-carboxylic acid-0.1 iso-propanol.0.1 hydrate]: the minimal effective concentration in data set [1] turned out to be 3 µg/mL. Further, the “Acute Toxicity (MLD)” value in the data set with mice (ip) was over 100 mg/kg; in the data set on mice (po) it was over 300 mg/kg. In addition, in data set [2], the minimal effective dose was over 100 mg/kg. Besides, the inhibition at 1 µM on TXA2 receptor (setting [3]) worked out at 83%.
Take `O=C(O)c1ccc2c(c1)/C(=C/CN1CCN(S(=O)(=O)c3cccs3)CC1)c1ccccc1CO2` [Compound E-79b, (E)-11-[2-[4-(2-Thienylsulfonyl)-1-piperazinyl]ethylidene]-6,11-dihydrodibenz[b,e]oxepin-2-carboxylic acid.0.5 hydrate]: the minimal effective concentration in data set [1] stood at 30 µg/mL. Moreover, the results for the “Acute Toxicity (MLD)” value in the data set on mice (ip) and in the data set with mice (po) were over 100 mg/kg and over 300 mg/kg, respectively. In addition, the minimal effective dose in data set [2] is over 100 mg/kg. In addition, the inhibition at 1 µM at TXA2 receptor (setting [3]) stood at 77%.
In the case of `O=C(O)c1ccc2c(c1)/C(=C/CN1CCN(CC=Cc3ccccc3)CC1)c1ccccc1CO2` [E-75b', (E)-11-[3-(4-Cinnamyl-1-piperazinyl)ethylidene]-6,11-dihydrodibenz[b,e]oxepin-2-carboxylic acid.difumarate-0.5 hydrate], the minimal effective concentration in data set [1] turned out to be 0.1 µg/mL. The “Acute Toxicity (MLD)” value in the data set with mice (ip) is reported as over 100 mg/kg; with mice (po), over 300 mg/kg. For the same compound, the minimal effective dose in data set [2] came out at 100 mg/kg. Further, the inhibition at 1 µM at TXA2 receptor (setting [3]) is 85%.
In the case of `CN1CCC(=C2c3ccccc3CC(=O)c3sccc32)CC1` [Ketotifen, reference compound], at TXA2 receptor, the inhibition at 1 µM is -3% and the “inhibitory activity” value is “not observed”.

The values are drawn from US5302602A, “Tricyclic thromboxane A2 antagonists” (Kyowa Hakko Kogyo Co., Ltd., priority 1987, dated 1994).
